Assay results from patent US7776312B2, “Method of treating Alzheimer's disease comprising administering deferoxamine (DFO) to the upper one-third of the nasal cavity” (HealthPartners Research Foundation, priority 2004, dated 2010).
Like-named read-outs stand apart in the source and are kept apart here.

Tests used:
[1] = Intranasal delivery of DFO (59Fe-labeled ferrioxamine), tissue concentrations by scintillation counting; format: in vivo, rats; conditions: rat, 6 mg, intranasal ~6 mg, 25 min. after onset of delivery
Description: Following delivery, tissues were removed for analysis.

[2] = tested on: middle cerebral artery occlusion (MCAO); experiment: Pre-stroke intranasal DFO, 2-hour middle cerebral artery occlusion (MCAO), infarct volume by TTC staining; format: in vivo, rats; conditions: for total infarct volume: rats
[3] = tested on: hypoxia-inducible factor-1α (HIF-1α); experiment: Western blot of brain proteins for HIF-1α after intranasal DFO; format: in vivo; conditions: rats, Western blot quantitation
Description: Intranasal DFO reduced infarct volumes by 60% when expressed as either total infarct, cortical infarct, or striatal infarct volume. Brain proteins from olfactory bulb and from striatum were subjected to Western blot analysis for hypoxia-inducible factor-1α (HIF-1α). See FIG. 1 for a bar graph illustrating the results (10) for control animals (C) and pretreated animals (P). The results are shown broken into the cortex (12), striatum (14) and overall total (16) infarct volumes for control/pretreated animals. […] Here, the control animals' (C) total infarct volume is 175.93 mm^3 (18), while the pretreated animals' (P) total infarct volume is 70.57 mm^3 (20). Thus, a reduction of 60% in infarct volume is realized by way of this pretreatment regimen.
Additional brain samples from animals treated with intranasal DFO were generated, total RNA was isolated from olfactory bulb and striatum, and cDNA was generated using primers specific for HIF-1α.

[4] = tested on: middle cerebral artery occlusion (MCAO); experiment: Post-stroke intranasal DFO at start of reperfusion after MCAO, infarct volume; format: in vivo, rats
Procedure: In this regard, let us now turn to FIG. 4. Here, the experimental method is as follows: The method is the same as described above in connection with FIG. 1, except that the subjects are not pretreated. […] Six doses of 10% DFO (6 mg DFO/dose) were administered in this manner; three doses of 10% DFO at 2-hour intervals on the day of surgery and the remaining three doses of 10% DFO at three-hour intervals on the day following surgery (40).

[5] = tested on: middle cerebral artery occlusion (MCAO); experiment: Intranasal DFO pretreatment, infarct volume and brain swelling 24 hours after MCAO; format: in vivo, rats; conditions: 3 doses of 60 μl 10% intranasal DFO 48 hours before MCAO
Procedure: Further, another experiment was conducted to further discover the mechanisms that may be manipulated in order to achieve the desired therapeutic results. Thus, rats were treated with 3 doses of 60 μl 10% intranasal deferoxamine (DFO), or water, at 3 hours intervals. The two groups of rats were either sacrificed or subjected to a 2-hour Middle Cerebral Artery Occlusion (MCAO) 48 hours later. Those rats undergoing the MCAO were sacrificed 24 hours after the MCAO.
In addition to the bioarray and PCR results, total infarct volume, cortical infarct volume and brain swelling were assessed for the rats pretreated with intranasal DFO with stroke and untreated rats with stroke 24 hours after MCAO.

[6] = humans, intravenous; cited from earlier work
[7] = cited from earlier work
[8] = one dose of 10% DFO intranasal pre-stroke, 5 days after MCAO
[9] = three doses of 3% DFO intranasal pre-stroke
[10] = three doses of 10% DFO intranasal pre-stroke, 5 days after MCAO

CC(=O)N(O)CCCCCNC(=O)CCC(=O)N(O)CCCCCNC(=O)CCC(=O)N(O)CCCCCN [DFO, deferoxamine]
concentration at 25 min ([1]; olfactory epithelium, read-out: DFO concentration, Olfactory Epithelium): 12000 µM | concentration at 25 min ([1]; septal nucleus, read-out: DFO concentration, Septal Nucleus): 2.6 µM | concentration at 25 min ([1]; thalamus, read-out: DFO concentration, Thalamus): 1.1 µM | overall infarct volume reduction [2, 8]: 26% | total infarct volume [2, 8]: 86.72 mm^3 | total infarct volume [2, 9]: 101.83 mm^3 | total infarct volume ([2]; three doses of 10% DFO (6 mg each) intranasal 48 hours before 2-hour MCAO, 5 days after MCAO): 70.57 mm^3 | reduction of total infarct volume [2, 9]: 35% | reduction of cortical infarct volume [2, 10]: 60% | reduction of striatal infarct volume [2, 10]: 60% | reduction of total infarct volume ([2]; three doses of 10% DFO intranasal pre-stroke, 5 days after MCAO, vs distilled water controls): 60% | elevation of HIF-1α protein in olfactory bulb [3]: approximately 30 fold | elevation of HIF-1α protein in striatum [3]: ~20 fold | total infarct volume ([4]; rats, six doses of 10% DFO (6 mg/dose) intranasal post-stroke from start of reperfusion): 116 mm^3 | reduction of total infarct volume ([4]; six doses of 10% DFO intranasal post-stroke): 55% | decrease in brain swelling [5]: 71% | decrease in cortical infarct volume [5]: 72% | decrease in total infarct volume ([5]; rats): 56% | plasma half-life [6]: less than 10 minutes | effect of intravenous bolus injection [7]: causes acute hypotension
